Source: a melting point compilation (Tetko et al.; mined from patent text by program, amines drawn as free bases though some values may be those of a salt)

| SMILES | melting point [°C] |
| --- | --- |
| COc1ccc2[nH]c(C(=O)O)c(-c3ccccc3F)c2c1 | 206 to 208 |
| OCCN1CCC(OC(c2ccccc2)c2ccccc2)CC1 | 83 to 85 |
| CC(C)c1ccc(C2c3cc(NC(=O)CC(C)(C)C)ccc3OC2(C)C)cc1 (centres undefined) | 126 to 127 |
| Cc1ccncc1-c1nc(-c2ccc(Cl)cc2)c(Cl)s1 | 146 |
| O=C(O)c1c(Oc2ccccc2)cccc1Oc1ccccc1 | 164 to 165 |
| CC(C)CCS(=O)(=O)c1cccc(-c2nc(=O)c3ccccc3s2)n1 | 146 to 147 |
| CC(C)OC(=O)OC1Oc2ccc(OS(=O)(=O)N(C)C)cc2C1(C)C (centres undefined) | 95 to 96 |
| CN(C)C=C(C=O)c1cccc(C(F)(F)F)c1 | 128 to 132 |
| COc1c(SCc2ccco2)ccnc1CO | 56 to 58 |
| O=C(NCCO)c1cc(F)cc(-c2ccc(F)c3cc(Cc4cccc(C(F)(F)F)c4)sc23)c1 | 107 to 108 |
| CCc1cc2c(-c3ccccc3Cl)c(NC(=O)C=Cc3cc(OC)c(OC(C)=O)c(OC)c3)cnc2s1 | 133 to 135 |
| COc1ccc2c(c1)c1c(n2C(=O)c2ccc(Cl)cc2)CCC(C(=O)O)C1 (centres undefined) | 269 to 273 |
| Cc1ccc(C(=O)c2c(C)c(C(=O)O)c(CC(=O)O)n2C)cc1 | 229 to 230 |
| CCCCC(Cc1cc(C(C)(C)C)c(O)c(C(C)(C)C)c1)(C(=O)OC1CC(C)(C)N(C(C)=O)C(C)(C)C1)C(=O)OC1CC(C)(C)N(C(C)=O)C(C)(C)C1 | 120 to 124 |
| Cc1cc2c(cc1Br)N1CCc3cccc(c31)C(N1CCN(C)CC1)=N2 | 177 |
| COc1ccc(-n2ccc3ccccc32)cc1 | 52 to 54 |
| CCOCn1cc(C(C)C)c(=O)[nH]c1=O | 78.4 |
| N#CCCNC(=O)c1cccc(-c2ccc3c(n2)N(c2ccc(Cl)cc2Cl)CC3)c1 | 219 to 220 |
| FC(F)(F)c1n[nH]c(-c2nc3ccccc3[nH]2)n1 | 247 |
| CCNC(=O)c1c(Cl)cccc1[Si](C)(C)CC | 94 to 95 |
| NS(=O)(=O)c1cccc(-c2cccc(-c3nc(-c4ccc(C(F)(F)F)cc4)cc(C(F)(F)F)n3)c2)c1 | 267 |
| CCOC(=O)C(C#N)=C(Nc1ccc(N(CC)CC)cc1)SC | 100 |
| Cc1cc(-c2c(-c3ccc(OCC(F)(F)F)c(C(F)(F)F)c3)nc3cncn3c2C(F)(F)F)ccn1 | 219 |
| COc1cc(Nc2c(C#N)cnc3sc(C)cc23)c(Cl)cc1Cl | 179 to 181 |
| COc1ccc(CN2CCc3cc(O)ccc3C2)cc1 | 158 to 160 |

| SMILES | melting point [°C] |
| --- | --- |
| CN1CCN(c2cc([N+](=O)[O-])ccc2Cl)CC1 | 63 to 64 |
| COc1ccc(C(=O)C=Cc2ccc(C#N)cc2)c(OC)c1OC | 132 to 133 |
| O=C(CCc1ccccc1)NC(C(=O)Nc1n[nH]c(=S)s1)c1ccccc1 (centres undefined) | 196 to 198 |
| COc1cccc2c(=O)c(C(C)=O)c[nH]c12 | 287 to 289 |
| CC(=O)Nc1nc(CCCl)cs1 | 161 to 163 |
| CCn1cc(C(=O)O)c(=O)c2ccc(C3CCCCC3)cc21 | 222 to 224 |
| N#Cc1cccc(-c2cncc(OC3SCC(O)C(O)C3O)c2)c1 (centres undefined) | 172 |
| CC(=O)N1CCC(CCCC(=O)c2ccc(F)cc2)CC1 | 77 to 78 |
| Cc1ccc(S(=O)(=O)NCC(CC(=O)Nc2ccc(C(=O)O)cc2)c2ccc(Cl)cc2)cc1 (centres undefined) | 250 to 252 |
| Nc1cc(OCCO)nc(N)n1 | 190 |
| N#Cc1cc(-c2ccc(Cl)c(Cl)c2)[nH]c1Cl | > 200 |
| Cc1nc2nc(SCc3ccccc3)nn2c(Cl)c1Cl | 103 to 105 |
| Cc1ccc(C=NC2=NN(c3ccc4ccccc4c3)CC2)cc1 | 184 to 186 |
| CC(C)CN1CCC(N(C)S(=O)(=O)c2ccc(Nc3nccc(Nc4ccc(F)cc4)n3)cc2)CC1 | 194 to 195 |
| COc1cccc(C23CCN(C)CC2Cc2c([nH]c(C(=O)N4CCCC4)c2C)C3)c1 (centres undefined) | 171 to 173 |
| O=c1[nH]nc2ccc(-c3ccccc3)nn12 | 255 to 257 |
| S=C(Nc1c(Cl)cccc1Cl)N1CCN(c2cnccn2)CC1 | 225 to 227 |
| COc1cccc(CNc2nccc(-c3cc(N4CCN(CCCN(C)C5CCCCC5)CC4)c4cc(OC)ccc4c3)n2)c1 | 155 to 161 |
| CS(=O)(=O)c1ccc(-c2cc(C(=O)CCCO)nn2-c2ccccc2)cc1 | 143 to 145 |
| CCOC(=O)CN(C)C1CCCN(C(=O)c2ccc(NC(=O)c3ccccc3C)cc2)c2ccccc21 (centres undefined) | 167 to 168 |
| NC[C@@H]1CNc2cccc(-c3ccc(Cl)cc3Cl)c2O1 | 163 |
| CCCCCCCCCCCCCCOc1cccc(CC(=O)Nc2cccc(CO)c2)c1 | 86 to 90 |
| COc1cc2c(cc1OC)-c1ncc(C#N)c(=O)n1CC2 | 261 to 262 |
| Cc1nc(C(C)(O)c2ccsc2)c(C)o1 (centres undefined) | 83 to 84 |
| O=C(Nc1ccc2cc(CN3CCCCC3)ccc2c1)N1CCC(c2ccc(F)cc2)CC1 | 209 to 211 |

| SMILES | melting point [°C] |
| --- | --- |
| CC(=O)OCC(=O)c1cc2c(s1)SCCc1cc(=O)n(-c3ccc(Cl)cc3)nc1-2 | 172 to 174 |
| O=[N+]([O-])c1cc(Cn2ccnc2)ccc1NCc1cccnc1 | 171 |
| CCCCOc1nc(N)c2[nH]c(=O)n(CCCCN(CC(C)(C)CN(C)C)S(=O)(=O)c3cccc(CC(=O)O)c3)c2n1 | 175 to 176 |
| CS(=O)(=O)c1nnc(C(F)F)s1 | 59 |
| COC(=O)COc1cc(C)nc(NC(=O)NS(=O)(=O)c2cccs2)n1 | 114 to 120 |
| COc1cc(Cc2cnc(N)nc2N)cc2c1NCCC2C (centres undefined) | 221 to 223 |
| COCCN(C)Cc1c(-c2ccc(NC(=O)NOC)cc2)sc2c1c(=O)n(-c1ccccc1)c(=O)n2Cc1c(F)cccc1F | 161 to 163 |
| COC(=O)C1=C(C)NC(C)=C(C(=O)OC)C1c1cc([N+](=O)[O-])ccc1OCCNCC(O)c1ccccc1 (centres undefined) | 135 to 137 |
| O=C(NCCCCc1cccnc1)c1ccc(-c2cccc(O)c2)cc1 | 150 to 152 |
| COc1ccc(C(NCC(C)c2ccccc2)c2cccc(Nc3c(N)c(=O)c3=O)c2)cc1 (centres undefined) | 192 to 194 |
| CN(C)C1CCCN(C(=O)c2ccc([N+](=O)[O-])cc2)c2ccccc21 (centres undefined) | 139 to 142 |
| COc1nc2cc(Cl)c(Cl)c(CSC)c2nc1OC | 143 to 145 |
| CC#CCOc1ccc(S(=O)(=O)C(C(=O)NO)c2ccc(OC)cc2)cc1 (centres undefined) | 190 |
| FC(F)(F)c1ccc(CC(=Nc2ccccc2)NC(=S)NCc2cccnc2)cc1 | 165 to 166 |
| O=C(CNc1ccc2[nH]ncc2c1)N1CCC(Cc2ccc(F)cc2)CC1 | 113 to 114 |
| N#Cc1ccc(N2CCN(Cc3cnc4c(c3)NC(=O)[C@@H]3CCCN43)CC2)c(Cl)c1 | 213 to 215 |
| CCOC(=O)Nc1cc(F)cc(CCCCC(=O)O)c1 | 136 to 137 |
| O=c1n(-c2ccccc2)nc2c3c(nc(Cl)n12)CCCC3 | 205 to 207 |
| O=C(NCCCN1CCC(c2ccccc2)(c2ccccc2)CC1)N1CCOCC1c1ccc(F)c(F)c1 (centres undefined) | 71 to 74 |
| Cc1c(N)ccc2c(O)c(C(=O)NCc3ccc(Cl)cc3)cnc12 | 256 to 258 |
| COC(=O)C1=C(C(OC)OC)NC(C)=C(C(=O)OCC(C)C)C1c1ccccc1C#N (centres undefined) | 126 to 128 |
| CC(C)(C)OC(=O)NCCCn1c2c(c3ccc(NCC(=O)O)cc3c1=O)C(=O)c1ccccc1-2 | 190 to 192 |
| CC(C)(C)c1cc(CC#Cc2ccc(C(=O)O)cc2)cc(C(C)(C)C)c1O | 198 to 199 |
| O=C1NC(=O)C2(CCCCC2)N1c1ccc(I)cc1 | 249 to 251 |
| N#CC1(N2CCCCC2)CCCCC1 | 66 to 68 |

| SMILES | melting point [°C] |
| --- | --- |
| O=C(Cn1c(-c2ccc(C(F)(F)F)cc2)nc2cccnc21)NCc1ccccc1 | 224 to 225 |
| c1ccc(-c2ccc(C34CCCN(CC3)C4)nn2)cc1 (centres undefined) | 133 to 134 |
| O=[N+]([O-])c1ccc(F)c2ncccc12 | 132 to 133 |
| COc1cc(CO)ccc1NC(C)=O | 104 |
| O=S(=O)(c1ccccc1)c1ccc2c(c1)NCC(C(F)F)(C(F)F)O2 | 100 to 113 |
| O=C1c2ccccc2C(Cc2ccnc(F)c2)(Cc2ccnc(F)c2)c2ccccc21 | 156 to 157 |
| Cc1nc(N)cc(-n2ccc3ccccc32)n1 | 176 to 177 |
| CCC(=O)CCSc1cc(C(C)(C)C)c(O)c(C(C)(C)C)c1 | 76 to 79 |
| CCCN(Cc1ccc(-c2ccccc2-c2nc(=O)o[nH]2)cc1)c1nc(C)ncc1C(=O)OCC | 176 to 177 |
| COc1cccc2c1CCC(n1cc[nH]c1=S)C2 (centres undefined) | 233 to 235 |
| NC(=O)Nc1ccccc1S | 151 to 153 |
| NS(=O)(=O)c1cc2nc[nH]c2cc1Cl | 244 |
| Cc1c(NC(=O)c2ccc(-c3ccc4c(c3)CCCCO4)cc2)ccc2cc(CN3CCCC3)cnc12 | 162 to 163 |
| COC(=O)CS(=O)(=O)Cc1cccc(-c2nc(=O)c3ccccc3s2)n1 | 205 to 207 |
| COc1ccc(C(C#Cc2ccccc2)CC(=O)O)cc1OC1CCCC1 (racemic) | 86 to 88 |
| ClC1Cc2cc(Br)ccc2Sc2ccccc21 (centres undefined) | 122 to 124 |
| Cc1cccc(-c2n[nH]cc2-c2ccc(F)c(-c3cnn(C)c3)c2)n1 | 155 to 156 |
| CCCCCCCCCCCCCCOC(=O)c1ccc(Cl)c(NC(=O)C(C(=O)c2ccccc2)N2C(=O)c3ccccc3C2=O)c1 (centres undefined) | 81 to 82 |
| CC(=O)N1c2c(ccc3c2nc(C)n3C)[C@@H]2O[C@@H]2[C@H]1c1ccccc1 | 200 to 205 |
| CSc1ccc(NS(=O)(=O)c2ccc(C)cc2)c([N+](=O)[O-])c1 | 116 to 117 |
| CCNC(=NNc1c(Cl)cc(C(F)(F)F)cc1Cl)C1(C)CC1(Cl)Cl (centres undefined) | 79 |
| Cc1ccc(C(C=O)=CN(C)C)c([N+](=O)[O-])c1 | 117 to 119 |
| CC(=O)SCC(Cc1ccccc1)C(=O)Nc1ccc(C(N)=O)cc1 (centres undefined) | 195 to 197 |
| O=S1(=O)N=CN(C2CC2)c2ccc(F)c(F)c21 | 205 to 206 |
